Reference: patent US7056491B2, “Monoterpenes and sesquiterpenes as chemotherapeutic and radiation sensitizers and immunomodulators” (Wisconsin Alumni Research Foundation, priority 2000, dated 2006)

Tests used:
pancreatic carcinoma = conditions: POH-fed hamsters; control animals showed tumor growth; cited from earlier work
[1] = tested on: DU145 prostate cancer cells; experiment: Clonogenic survival assay, POH with or without radiation, DU145; type: cell-based, human
Experimental: (§1) Subconfluent cultures of prostate cancer cell line DU145 were treated with 0.1–0.5 mM of POH for 72 hours and subsequently to increasing doses of radiation from 0.1 Gy to 8.5 Gy. Control cells were treated with the indicated doses of radiation alone. The cells were harvested and an optimum number of cells were allowed to grow for 14 days. The resulting colonies were stained and counted. Each graphed point represents mean values ± SE values of triplicate dishes.
(§2) Table 1 summarizing data from different cell lines treated with radiation, radiation plus POH, and POH alone. Subconfluent cultures of human glioma (T98G, M059K, U251), prostate (DU145, PC3), colon (DLD-1, HT29) and pancreatic (MIAPACA) cancer cell lines were treated with 0.1–0.5 mM of POH for 72 hours and subsequently to increasing doses of radiation from 0.1 Gy to 8.5 Gy. Control cells were treated with medium alone. The cells were harvested and an optimum number of cells were allowed to grow for 14 days. The resulting colonies were stained and counted. Each graphed point represents mean values ± SE values of triplicate dishes. Percentage survival was determined as the ratio of plating efficiencies for each irradiated group to that of the unirradiated control.

[2] = tested on: MIAPACA pancreatic cancer cells; experiment: Clonogenic survival assay, POH with or without radiation, MIAPACA; type: cell-based, human
Experimental: as §2

T98G cells = experiment: Clonogenic survival, POH pretreatment then cisplatin, T98G; type: cell-based, human; conditions: POH 0.1 mM–0.5 mM 48 hours then cisplatin 0.05 uM–1 uM 48 hours
Experimental: Referring to FIG. 28, subconfluent cells of T98G cells were treated with varying concentrations of perillyl alcohol (0.1 mM–0.5 mM) for 48 hours and subsequently treated with the indicated dose of cisplatin (0.05 uM–1 uM) for 48 hours. At the end of the treatment, POH pretreated and untreated cells in the presence and absence of cisplatin, were harvested, washed with PBS, plated at the desired cell number and incubated for two weeks. The colonies were stained with crystal violet and quantitated. Survival was determined as the ratio of plating efficiencies for each irradiated group to that of the untreated control.

[3] = tested on: PC3 prostate cancer cells; experiment: Clonogenic survival assay, POH with or without radiation, PC3; type: cell-based, human
Experimental: as §1, with “FIGS. 2–14 illustrates additional work with other monoterpenes and cell lines. […] Subconfluent” for “Subconfluent”, “cultures” for “cultures of”, “PC3” for “DU145”, “growth” for “grow”
as §2

## C=C(C)[C@@H]1CC=C(CO)CC1 [POH, Perillyl alcohol]
Pancreatic carcinoma
  antitumor effect in pancreatic carcinoma models: either regression or no growth of the tumors
[1]; 0.1 mM POH 72 h, no radiation
  % SURVIVAL: 0.648 ± 0.008%
[1]; 0.1 mM POH + 5.5 Gy
  % SURVIVAL: 0.044 ± 0.00157%
[1]; 0.3 mM POH 72 h, no radiation
  % SURVIVAL: 0.456 ± 0.0112%
[1]; 0.3 mM POH + 5.5 Gy
  % SURVIVAL: 0.026 ± 0.00076%
[1]; 0.5 mM POH 72 h, no radiation
  % SURVIVAL: 0.207 ± 0.005%
[1]; 0.5 mM POH + 5.5 Gy
  % SURVIVAL: 0.017 ± 0.005%
[2]; 0.1 mM POH 72 h, no radiation
  % SURVIVAL: 1.503 ± 0.05%
[2]; 0.1 mM POH + 5.5 Gy
  % SURVIVAL: 0.154 ± 0.018%
[2]; 0.3 mM POH 72 h, no radiation
  % SURVIVAL: 0.750 ± 0.05%
[2]; 0.3 mM POH + 5.5 Gy
  % SURVIVAL: 0.059 ± 0.008%
[2]; 0.5 mM POH 72 h, no radiation
  % SURVIVAL: 0.450 ± 0.07%
[2]; 0.5 mM POH + 5.5 Gy
  % SURVIVAL: 0.015 ± 0.0027%
T98G cells
  sensitization to cisplatin-induced cell death: dose-dependent sensitization
[3]; 0.1 mM POH 72 h, no radiation
  % SURVIVAL: 0.734 ± 0.038%
[3]; 0.1 mM POH + 5.5 Gy
  % SURVIVAL: 0.007 ± 0.0009%
[3]; 0.3 mM POH 72 h, no radiation
  % SURVIVAL: 0.366 ± 0.017%
[3]; 0.3 mM POH + 5.5 Gy
  % SURVIVAL: 0.003 ± 0.0058%
[3]; 0.5 mM POH 72 h, no radiation
  % SURVIVAL: 0.244 ± 0.009%
[3]; 0.5 mM POH + 5.5 Gy
  % SURVIVAL: 0.001 ± 0.00067%
